From the supplement of paper PMC3493320

Test system: NCI-H295R
Assay: IC50 (antiproliferative, ATP content)
Conditions: 48 h
Outline: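 Compounds were pin-transferred at 8 final concentrations between 0.6 nM and 46 µM onto adrenocortical carcinoma cells (1500 per well, 1536-well plates) that had been cultured overnight in serum-free DMEM with ITS. Plates then stood 48 h at 37 °C, 5% CO2, and ATP was detected by CellTiter-Glo luminescence. IC50 was derived from logistic fits of normalised signal, and compounds giving no concentration response were noted as above the top dose.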

| Structure (SMILES) | IC50 |
| --- | --- |
| Clc1cccc(N2CCNCC2)c1 | > 46 µM |
| CC(C)NCC(O)c1ccccc1Cl.Cl (stereo not drawn) | > 46 µM |
| O=C2N1[C@]([C@@]([H])2N)([H])SC(C)(C)[C@@H]1[C@@](O)=O | > 46 µM |
| CC[C@@H](CO)NC(=O)[C@@H]1C=C2c3cccc4c3c(cn4C)C[C@H]2N(C)C1 | > 46 µM |
| CN1C[C@H](C(=O)N[C@]2(C)O[C@@]3(O)[C@@H]4CCCN4C(=O)[C@H](Cc4ccccc4)N3C2=O)C[C@@H]2c3cccc4[nH]cc(c34)C[C@H]21 | > 46 µM |
| OCc1ccccc1O | > 46 µM |
| [O-][C@@]([C@@]13[C@@]([C@]2([H])OC(C)(C)OC[C@@]([H])2O3)([H])OC(C)(C)O1)=O.[Na+] | > 46 µM |
| Cc1c(N(C)C)c(=O)n(-c2ccccc2)n1C | > 46 µM |
| C[N+]1([O-])[C@@H]2CC[C@H]1C[C@@H](OC(=O)C(CO)c1ccccc1)C2.Cl (stereo partly drawn) | > 46 µM |
| [Br-].O.C[N+]2(C1C[C@H](CC2CC1)OC(=O)C(CO)c3ccccc3)C(C)C (stereo not drawn) | > 46 µM |
| CCN1CCC[C@H]1CNC(=O)c1c(OC)ccc(Br)c1OC | > 46 µM |
| CN1C[C@@H](NS(=O)(=O)N(C)C)C[C@@H]2c3cccc4c3c(cn4C)C[C@H]21 | > 46 µM |
| O=C(O)c1ccc(NC2OC[C@@H](O)[C@H](O)[C@H]2O)cc1 (stereo partly drawn) | > 46 µM |
| CC1C(=O)CC2C3(C)CCC2(C(C)C(=O)O)C(=O)C13 (stereo not drawn) | > 46 µM |
| Clc1ccc2nsnc2c1NC1=NCCN1 | > 46 µM |
| [O]=[Cd] | > 46 µM |
| NC/C=C/C(=O)O | > 46 µM |
| Cc1cc(C(=O)NNCc2ccccc2)no1 | > 46 µM |
| C[C@H]1COc2c(C3(N)CC3)c(F)cc3c(=O)c(C(=O)O)cn1c23 | > 46 µM |
| O=C1NCCN1c1ncc([N+](=O)[O-])s1 | > 46 µM |
| O=c1[nH]cc(N(CCCl)CCCl)c(=O)[nH]1 | > 46 µM |
| O[C@@H]([C@H](O)[C@H](O)CBr)[C@H](O)CBr | > 46 µM |
| CC(C)c1nc(N(C)S(C)(=O)=O)nc(-c2ccc(F)cc2)c1/C=C/C(O)CC(O)CC(=O)[O-].CC(C)c1nc(N(C)S(C)(=O)=O)nc(-c2ccc(F)cc2)c1/C=C/C(O)CC(O)CC(=O)[O-].[Ca+2] (stereo not drawn) | > 46 µM |
| CCN(CC)CCOC(=O)C1(c2ccccc2)CCCC1.CCN(CC)CCOC(=O)C1(c2ccccc2)CCCC1.O=S(=O)(O)CCS(=O)(=O)O | > 46 µM |
| COc1cc(OC)c(C(=O)CCCN2CCCC2)c(OC)c1.Cl | > 46 µM |

Further lines, results first:

| IC50 | Structure (SMILES) |
| --- | --- |
| > 46 µM | CN/C(=N\c1ccc(C2=NNC(=O)CC2C)cc1)NC#N (stereo not drawn) |
| > 46 µM | CCC(C(=O)NC(N)=O)c1ccccc1 (stereo not drawn) |
| > 46 µM | CN(N=O)C(=O)N[C@@H]1[C@@H](O)[C@H](O)[C@@H](CO)O[C@@H]1O |
| > 46 µM | CCCCC(CC)COC(=O)c1ccc(N(C)C)cc1 (stereo not drawn) |
| > 46 µM | C[C@H]1[C@H](NC(=O)C(=NOC(C)(C)C(=O)O)c2csc(N)n2)C(=O)N1S(=O)(=O)O |
| > 46 µM | CCN1CCc2nc(N)oc2CC1.Cl.Cl |
| > 46 µM | O=c1cc(CO)occ1O |
| > 46 µM | Cl[C@H](CC4)[C@H](OC)C[C@@H]4/C=[C@](C)/[C@@H](OC([C@]2([H])CCCCN12)=O)[C@H](C)[C@@H](O)CC([C@H](CC)/C=C(C)/C[C@H](C)C[C@H](OC)[C@@]([C@@H](OC)C[C@H]3C)([H])O[C@@]3(O)C(C1=O)=O)=O |
| > 46 µM | [O]=[Bi][O]C(=O)[O][Bi]=[O] |
| > 46 µM | CC1Cc2ccccc2N1NC(=O)c1ccc(Cl)c(S(N)(=O)=O)c1 (stereo not drawn) |
| > 46 µM | CN1C(=O)OC(C)(C)C1=O |
| > 46 µM | CCC(=O)c1ccc(O)cc1 |
| > 46 µM | CC(N/C(=N\C#N)Nc1ccncc1)C(C)(C)C.O (stereo not drawn) |
